From US5451581A, “Antibiotic LL-14E605β and O-methyl-LL-14E605β” (priority 1993, dated 1995)

How the values were obtained:
[1] = tested on: Enterococcus avium (ID-3953); assay: In vitro antibacterial activity, standard agar dilution (MIC); assay type: cell-based; conditions: Mueller-Hinton agar, about 18 hours, approximately 35° C.
Experimental: (§1) The in vitro antibacterial activity of LL-14E605β and O-methyl-LL-14E605β is determined against a spectrum of gram positive and gram-negative bacteria by a standard agar dilution method. Mueller-Hinton agar containing two fold decreasing concentrations of the antibiotics is poured into petri plates. The agar surfaces are inoculated with 1 to 5×10^4 colony forming units of bacteria by means of a Steer's replicating device. The lowest concentration of the LL-14E605 antibiotics that inhibits growth of a bacterial strain after about 18 hours of incubation at approximately 35° C. is recorded as the minimal inhibitory concentration (MIC) for that strain.

[2] = tested on: Staphylococcus, coagluase negative (ID-3120); assay: as above; assay type: cell-based; conditions: Mueller-Hinton agar, about 18 hours, approximately 35° C.
Experimental: as §1

[3] = tested on: Morganella morganii (VGH 84-11); assay: as above; assay type: cell-based; conditions: Mueller-Hinton agar, about 18 hours, approximately 35° C.
Experimental: as §1

[4] = tested on: Staphylococcus, coagiuase negative (ID-4615); assay: as above; assay type: cell-based; conditions: Mueller-Hinton agar, about 18 hours, approximately 35° C.
Experimental: as §1

[5] = tested on: Staphylococcus aureus (4379); assay: as above; assay type: cell-based; conditions: Mueller-Hinton agar, about 18 hours, approximately 35° C.
Experimental: as §1

[6] = tested on: Staphylococcus, coagluase negative (ID-3276); assay: as above; assay type: cell-based; conditions: Mueller-Hinton agar, about 18 hours, approximately 35° C.
Experimental: as §1

[7] = tested on: Staphylococcus aureus (NEMC-89-4); assay: as above; assay type: cell-based; conditions: Mueller-Hinton agar, about 18 hours, approximately 35° C.
Experimental: as §1

[8] = tested on: Staphylococcus aureus (ID-2371); assay: as above; assay type: cell-based; conditions: Mueller-Hinton agar, about 18 hours, approximately 35° C.
Experimental: as §1

[9] = tested on: Staphylococcus, coagluase negative (ID-3941); assay: as above; assay type: cell-based; conditions: Mueller-Hinton agar, about 18 hours, approximately 35° C.
Experimental: as §1

[10] = tested on: Enterococcus faecium (ID-4133); assay: as above; assay type: cell-based; conditions: Mueller-Hinton agar, about 18 hours, approximately 35° C.
Experimental: as §1

[11] = tested on: Enterococcus faecalis (ATCC 29212); assay: as above; assay type: cell-based; conditions: Mueller-Hinton agar, about 18 hours, approximately 35° C.
Experimental: as §1

[12] = tested on: Escherichia coli (ATCC 25922); assay: as above; assay type: cell-based; conditions: Mueller-Hinton agar, about 18 hours, approximately 35° C.
Experimental: as §1

Escherichia coli (J2175) = assay: as above; assay type: cell-based; conditions: Mueller-Hinton agar, about 18 hours, approximately 35° C.
Experimental: as §1

Escherichia coli (J2445) = assay: as above; assay type: cell-based; conditions: Mueller-Hinton agar, about 18 hours, approximately 35° C.
Experimental: as §1

[13] = tested on: Enterococcus faecium (12202); assay: as above; assay type: cell-based; conditions: Mueller-Hinton agar, about 18 hours, approximately 35° C.
Experimental: as §1

[14] = tested on: Enterococcus faecalis (ID-2131); assay: as above; assay type: cell-based; conditions: Mueller-Hinton agar, about 18 hours, approximately 35° C.
Experimental: as §1

[15] = tested on: Staphylococcus aureus (ID-2727); assay: as above; assay type: cell-based; conditions: Mueller-Hinton agar, about 18 hours, approximately 35° C.
Experimental: as §1

[16] = tested on: Pseudomanas aeruginosa (ATCC 27853); assay: as above; assay type: cell-based; conditions: Mueller-Hinton agar, about 18 hours, approximately 35° C.
Experimental: as §1

[17] = tested on: Staphylococcus aureus (ATCC 29213); assay: as above; assay type: cell-based; conditions: Mueller-Hinton agar, about 18 hours, approximately 35° C.
Experimental: as §1

[18] = tested on: Enterococcus faecium (ID-3301); assay: as above; assay type: cell-based; conditions: Mueller-Hinton agar, about 18 hours, approximately 35° C.
Experimental: as §1

[19] = tested on: Staphylococcus hemolyticus (ID 4061); assay: as above; assay type: cell-based; conditions: Mueller-Hinton agar, about 18 hours, approximately 35° C.
Experimental: as §1

[20] = tested on: Micrococcus luteus (ATCC 9341); assay: as above; assay type: cell-based; conditions: Mueller-Hinton agar, about 18 hours, approximately 35° C.
Experimental: as §1

Bacillus cereus (Bacto) = assay: as above; assay type: cell-based; conditions: Mueller-Hinton agar, about 18 hours, approximately 35° C.
Experimental: as §1

[21] = tested on: Staphylococcus aureus (ID-3105); assay: as above; assay type: cell-based; conditions: Mueller-Hinton agar, about 18 hours, approximately 35° C.
Experimental: as §1

[22] = tested on: Enterococcus faecalis (ID-1829); assay: as above; assay type: cell-based; conditions: Mueller-Hinton agar, about 18 hours, approximately 35° C.
Experimental: as §1

[23] = tested on: Staphylococcus, coagluase negative (ID-3135); assay: as above; assay type: cell-based; conditions: Mueller-Hinton agar, about 18 hours, approximately 35° C.
Experimental: as §1

[24] = tested on: Enterococcus faecalis (12201); assay: as above; assay type: cell-based; conditions: Mueller-Hinton agar, about 18 hours, approximately 35° C.
Experimental: as §1

[25] = tested on: Enterococcus faecalis (ID-4168); assay: as above; assay type: cell-based; conditions: Mueller-Hinton agar, about 18 hours, approximately 35° C.
Experimental: as §1

[26] = tested on: Staphylococcus aureus (SMITH); assay: as above; assay type: cell-based; conditions: Mueller-Hinton agar, about 18 hours, approximately 35° C.
Experimental: as §1

[27] = Relative activity of the components of the LL-14E605 complex; conditions: listed as LL-14E605β

Minimal Inhibitory Concentration (MIC) [1] [µg/mL] | Minimal Inhibitory Concentration (MIC) [2] [µg/mL] | Minimal Inhibitory Concentration (MIC) [3] [µg/mL] | Minimal Inhibitory Concentration (MIC) [4] [µg/mL] | Minimal Inhibitory Concentration (MIC) [5] [µg/mL] | Minimal Inhibitory Concentration (MIC) [6] [µg/mL] | Minimal Inhibitory Concentration (MIC) [7] [µg/mL] | Minimal Inhibitory Concentration (MIC) [8] [µg/mL] | Minimal Inhibitory Concentration (MIC) [9] [µg/mL] | Minimal Inhibitory Concentration (MIC) [10] [µg/mL] | Minimal Inhibitory Concentration (MIC) [11] [µg/mL] | Minimal Inhibitory Concentration (MIC) [12] [µg/mL] | Minimal Inhibitory Concentration (MIC) (Escherichia coli (J2175)) [µg/mL] | Minimal Inhibitory Concentration (MIC) (Escherichia coli (J2445)) [µg/mL] | Minimal Inhibitory Concentration (MIC) [13] [µg/mL] | Minimal Inhibitory Concentration (MIC) [14] [µg/mL] | Minimal Inhibitory Concentration (MIC) [15] [µg/mL] | Minimal Inhibitory Concentration (MIC) [16] [µg/mL] | Minimal Inhibitory Concentration (MIC) [17] [µg/mL] | Minimal Inhibitory Concentration (MIC) [18] [µg/mL] | SMILES | other results
0.002 | 0.06 | > 64 | 0.015 | 0.015 | 0.008 | 0.015 | 0.015 | 0.06 | ≤ 0.005 | 0.015 | > 64 | > 64 | 0.06 | 0.004 | 0.015 | 0.008 | > 64 | 0.015 | 0.015 | COC(C)=C1NC(=O)C(C(C)O)NC(=O)c2csc(n2)-c2cc(O)c(-c3nc(C(N)=O)cs3)nc2-c2csc(n2)C2CSC(=O)c3[nH]c4cccc5c4c3COC(C(OC3CC(C)(O)C(N(C)C)C(C)O3)C(=O)OC5)C(NC(=O)c3csc1n3)c1nc(cs1)C(=O)N2 (stereo not drawn) [LL-14E605-beta] | Minimal Inhibitory Concentration (MIC) [19]: 0.03 µg/mL; Minimal Inhibitory Concentration (MIC) [20]: 0.002 µg/mL; Minimal Inhibitory Concentration (MIC) (Bacillus cereus (Bacto)): 0.06 µg/mL; Minimal Inhibitory Concentration (MIC) [21]: 0.015 µg/mL; Minimal Inhibitory Concentration (MIC) [22]: 0.002 µg/mL; Minimal Inhibitory Concentration (MIC) [23]: 0.03 µg/mL; Minimal Inhibitory Concentration (MIC) [24]: 0.015 µg/mL; Minimal Inhibitory Concentration (MIC) [25]: 0.015 µg/mL; Minimal Inhibitory Concentration (MIC) [26]: 0.008 µg/mL; activity relative to the other components of the LL-14E605 complex [27]: most active component of the LL-14E605 complex
8 | 1 | > 32 | 0.25 | 0.25 | 0.5 | 0.5 | 0.5 | 4 | 8 | 8 | > 32 | > 32 | > 32 | 8 | 4 | 0.25 | > 32 | 0.25 | 8 | COC(C)=C1NC(=O)C(C(C)O)NC(=O)c2csc(n2)-c2cc(OC)c(-c3nc(C(N)=O)cs3)nc2-c2csc(n2)C2CSC(=O)c3[nH]c4cccc5c4c3COC(C(OC3CC(C)(O)C(N(C)C)C(C)O3)C(=O)OC5)C(NC(=O)c3csc1n3)c1nc(cs1)C(=O)N2 [O-methyl-L-14E605beta] | Minimal Inhibitory Concentration (MIC) [19]: 1 µg/mL; Minimal Inhibitory Concentration (MIC) [20]: 0.5 µg/mL; Minimal Inhibitory Concentration (MIC) (Bacillus cereus (Bacto)): 0.5 µg/mL; Minimal Inhibitory Concentration (MIC) [21]: 0.25 µg/mL; Minimal Inhibitory Concentration (MIC) [22]: 8 µg/mL; Minimal Inhibitory Concentration (MIC) [23]: 1 µg/mL; Minimal Inhibitory Concentration (MIC) [24]: 4 µg/mL; Minimal Inhibitory Concentration (MIC) [25]: 8 µg/mL; Minimal Inhibitory Concentration (MIC) [26]: 0.25 µg/mL
